Reference: patent US20250281457A1, “TREATMENT OR PREVENTION OF DENGUE VIRAL INFECTION” (Janssen Pharmaceuticals, Inc., priority 2022, published 2025)

Assay: Safety and tolerability, adverse events (Example 5)
Type: in vivo, human
Description: Safety and tolerability of Compound (a) was evaluated throughout the study, as described in Example 1.

Compound: COc1cc(NC(C(=O)c2c[nH]c3ccc(OC(F)(F)F)cc23)c2ccc(Cl)cc2OC)cc(S(C)(=O)=O)c1 (centres unmarked) [Compound (a)]
- Related adverse events (Panel I (LD 450 mg twice daily for two days, MD 900 mg Q7D)): no related AEs
- Related adverse events (Panel II (LD 450 mg twice daily for two days, MD 450 mg Q3D or Q4D)): one Grade 1 AE of skin burning sensation considered related
- Related adverse events (Panel III (LD 150 mg twice daily for two days, MD 300 mg Q7D)): no related AEs
- Related adverse events (Panel IV (LD 150 mg twice daily for two days, MD 150 mg Q3D or Q4D)): two Grade 1 AE of pruritic rash considered related
- Grade 2 Treatment Emergent Events, overall (Panels I-IV): 4
- Grade 3 Treatment Emergent Events, overall (Panels I-IV): No
- Safety and tolerability, overall conclusion (Panels I-IV): safe and well tolerated
- serious adverse events (SAEs) or/and serious unexpected adverse reactions (SUSARs) observed (Panels I-IV): No
